Reference: ChEMBL document CHEMBL1201862, “PubChem BioAssay data set” (2004)
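48-hour exposure; five concentrations; linearly interpolated endpoints. Abbreviation: GI50, concentration required for 50% inhibition of growth.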 The source made the active and inactive calls. Rule as the data show it: active = GI50 up to about 1.1 µM and inactive = higher.

What was measured:
Assay in all cases: DTP human tumour cell line panel, 48 h
[1] = tested on: A549
[2] = tested on: ACHN
[3] = tested on: HCT-116
[4] = tested on: HOP-62
[5] = tested on: HOP-92
[6] = tested on: HT-29
[7] = tested on: IGROV-1
[8] = tested on: K562
[9] = tested on: LOX IMVI
[10] = tested on: Malme-3M
[11] = tested on: NCI-H23
[12] = tested on: OVCAR-8
[13] = tested on: RPMI-8226
[14] = tested on: SK-MEL-28
[15] = tested on: SK-MEL-5
[16] = tested on: SK-OV-3
[17] = tested on: SW-620
[18] = tested on: T47D
[19] = tested on: TK-10
[20] = tested on: UACC-62

Measured: GI50

COC(=O)c1sc2c(=O)c(C(=O)OC)c(C(=O)OC)sc2c(=O)c1C(=O)OC
inactive: [1] > 100 µM | [2] > 100 µM | [3] > 100 µM | [4] > 100 µM | [5] > 100 µM | [6] > 100 µM | [7] > 67.8 µM | [8] 43.2 µM | [9] 73.3 µM | [10] 49 µM | [11] > 100 µM | [12] > 100 µM | [13] > 100 µM | [14] > 100 µM | [15] > 76 µM | [16] > 100 µM | [17] > 100 µM | [18] > 100 µM | [19] > 100 µM | [20] > 100 µM

CC1(C)C(O)c2ccccc2OC1N1CCN(C2Oc3ccccc3C(O)C2(C)C)CC1 (stereo not given)
inactive: [1] > 100 µM | [2] > 100 µM | [3] > 100 µM | [4] > 100 µM | [5] > 100 µM | [6] > 100 µM | [7] > 100 µM | [8] > 100 µM | [9] > 100 µM | [10] > 100 µM | [11] > 100 µM | [12] > 100 µM | [13] > 100 µM | [14] > 100 µM | [15] > 100 µM | [16] > 100 µM | [17] > 100 µM | [18] > 100 µM | [19] > 10 µM | [20] > 100 µM

NS(=O)(=O)c1ccc(NC(=O)Nc2cccc3ccccc23)cc1
inactive: [1] 40.7 µM | [2] 33.2 µM | [3] 39.8 µM | [4] 34.4 µM | [5] 35.6 µM | [6] 60.3 µM | [7] 53.6 µM | [8] > 100 µM | [9] 43.1 µM | [10] 35.7 µM | [11] 34.4 µM | [12] 20.9 µM | [13] > 100 µM | [14] 39.4 µM | [15] > 100 µM | [16] 42.8 µM | [17] 44.8 µM | [18] 33.5 µM | [19] 31 µM | [20] 23.6 µM
